Reference: patent US10781185B2, “Heterocyclic compounds for the inhibition of PASK” (BioEnergenix LLC, priority 2009, dated 2020)

Columns and labels:
[1] = biological target: PASK (Homo sapiens (Human), UniProt Q96RG2); assay: PAS Kinase Luminescence Assay (Kinase-Glo); assay type: biochemical; conditions: purified hPASK from insect cells, read-out: IC50 Kinase Domain
Description: Biochemical Assay for hPASK Activity
PAS Kinase Luminescence Assay
One assay for purified hPASK activity utilizes the Kinase-Glo Luminescent Kinase Assay (Promega), which quantifies the amount of ATP remaining in solution following kinase reaction. The assay is carried out in a 96-well plate format and is performed by adding a volume of Kinase-Glo Reagent (Promega, catalog # V3771) equal to the volume of solution in the well of a completed kinase reaction. Kinase-Glo reagent contains Luciferase and its substrate. After addition to a kinase reaction it allows to measure luminescence. The amount of ATP left in solution at the time of Kinase-Glo Plus addition is directly proportional to the luminescence that is measured in each well, and inversely correlated with kinase activity.
Purified hPASK from insect cells (0.02 μg) is added to a 50 μL reaction mix containing 40 mM HEPES (pH 7.0), 100 mM KCl, 5 mM MgCl2, 1 mM DTT and […] of MBP protein. Inhibitory compounds are then added and the mixture is incubated for 10 min at 25° C. before adding 5 μL of ATP (at desired concentration). The reaction is allowed to proceed at 25° C. for 1 hour before adding 50 μL of Kinase-Glo reagent. The luminescence is measured as soon as 10 minutes after Kinase-Glo reagent is added.

[2] = biological target: PASK (UniProt # Q96RG2; human recombinant N-terminal GST tagged construct, residues 879-1323) (Homo sapiens (Human), UniProt Q96RG2); assay: PASK ATP Radiochemical Assay; assay type: biochemical; conditions: 33P-ATP radiochemical, Myelin Basic Protein substrate; read-out: IC50 Kinase Domain
Description: PASK ATP Radiochemical Assay
Test compounds in DMSO are then added and the mixture, followed by delivery of ^33P-ATP (specific activity 0.01 μCi/μl final) to initiate the reaction. […] The entire reaction mixture is washed through onto a P81 Phosphocellulose paper and washed three times for 10 minutes in 75 mM phosphoric acid and once in methanol prior to drying and scintillation counting.

[3] = test system: C57Bl6 mice fed a high fat diet; assay: Mouse High Fat Dietary Model with fast/re-feed; assay type: in vivo; conditions: for reduction in body weight vs vehicle: fast/re-feed mice
Description: Mouse High Fat Dietary Model
A standard model of human hyperlipidemia and insulin resistance is the mouse fed a high fat diet for several weeks (31, 33). Additionally, since hepatic lipid synthesis is known to be regulated by food consumption, the fast/re-feed cycle of Horton et al. (32) was incorporated into the chronic high fat diet model. The compound was evaluated in this model as an agent to restore insulin sensitivity and lower blood lipids. The chronic high fat diet was fed to mice to simulate a standard Western diet which is elevated in calories from high fat and carbohydrate intake. This and similar models of dietary induced obesity, insulin insensitivity and elevated serum lipids and cholesterol are used as mouse and rat models of human pathology including hyperlipidemia, type II diabetes, atherosclerosis, obesity, cardiovascular and liver disease. These models have been used as excellent predictors of efficacy in human clinical trials (PPAR and FXR agonists).
The farnesoid X receptor (FXR) is a ligand-activated transcription factor and a member of the nuclear receptor superfamily. […] While the mechanism of action of FXR agonists is clearly distinct from PASK inhibition, WAY-362450 has been used as a positive control compound producing physiologically beneficial changes in glucose and lipid metabolism resembling inhibition of PASK. Throughout these in vivo assays, WAY-362450 has been used as a control compound, and will be referred to as such.
Male C57Bl6 mice were obtained from Jackson Laboratories and had been fed a high fat diet (60% kcal fat) for eight weeks. The mice were fed an identical high fat diet (Research Diet D12492) upon arrival and during the study. All mice were treated with the subject compound at 30 or 100 mg/kg, control compound (WAY-362450) at 30 mg/kg or vehicle by oral gavage daily for three days. On the final day, 10 animals from each group began an 24 hour fast and then were sacrificed (fasted groups 1a,2a,3a,4a). Alternatively, 10 animals from each group underwent a 24 hour fast followed by a 12 hour re-feed period with the same high fat diet ad libitum and then were sacrificed (re-fed groups 1b,2b,3b,4b).
(§1) Body weights were monitored at the start and end of the protocol. After completing the fast or fast/re-feed conditions, the mice were given avertin for anesthesia by intraperitoneal administration. Whole blood was collected by cardiac puncture and the mice were terminated by cervical dislocation. Livers were collected surgically, weighed and immediately frozen in liquid nitrogen. The blood was placed in Li-heparin treated tubes, centrifuged to collect plasma and the plasma frozen.
The plasma was analyzed by standard colorimetric assays for glucose, insulin, triglycerides and cholesterol. Frozen liver samples were pulverized and extracted in ethanolic KOH and analyzed for liver triglycerides and cholesterol.

[4] = test system: Sprague Dawley rats on a high fructose diet; assay: Rat High Fructose Model with Fast/Re-Feed; assay type: in vivo; conditions: for body weight change relative to the Vehicle group: FIG. 1; for decrease in plasma glucose compared to vehicle / reduction in plasma insulin levels: after fast and re-feed
Description: Rat High Fructose Model with Fast/Re-Feed
Another standard model of human hyperlipidemia and insulin resistance is the rat fed a high fructose diet for several weeks (33). Additionally, since hepatic lipid synthesis is known to be regulated by food consumption, the fast/reefed cycle of Horton et al. (32) was incorporated into the chronic high fructose diet model. A compound disclosed above was evaluated in this model as an agent to restore insulin sensitivity and lower blood lipids.
Eight week old male Sprague Dawley rats were purchased from Harlan, Inc. The rats weighed 200-225 g upon arrival and were divided into groups as detailed in Table 2 and were immediately placed on a high fructose diet (60% kcal fructose; Open Source Diet # D00111301) ad libitum for three weeks. During the last week of feeding the high fructose diet, the rats were dosed with vehicle (5% solutol, 8% β cyclo-dextrin), subject compound at 30 mg/kg or 100 mg/kg or the control compound at 30 mg/kg by oral gavage once daily for 7 days. On the final day, all animals were placed on a […] followed by a 12 hour re-feed period on the high fructose diet ad libitum.
as §1, with “throughout” for “at the start and end of”, “rats” for “mice”
The plasma was analyzed by standard colorimetric assays for glucose, insulin, triglycerides and cholesterol.

[5] = 30 mg/kg oral gavage daily for three days
[6] = fasted and re-fed mice, 30 mg/kg
[7] = fasted only mice, 30 mg/kg oral gavage daily for three days
[8] = 30 mg/kg oral gavage once daily for 7 days

Chain of PASK (Homo sapiens (Human), UniProt Q96RG2) (Q96RG2 999-1251): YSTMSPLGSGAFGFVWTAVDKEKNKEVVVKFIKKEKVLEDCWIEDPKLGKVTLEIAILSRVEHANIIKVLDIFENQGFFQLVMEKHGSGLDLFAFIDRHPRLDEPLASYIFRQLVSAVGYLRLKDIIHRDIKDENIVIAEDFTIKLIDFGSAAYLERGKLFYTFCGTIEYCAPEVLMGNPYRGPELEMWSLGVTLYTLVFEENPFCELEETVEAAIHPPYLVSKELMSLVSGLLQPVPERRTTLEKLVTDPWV
Chain of PASK (UniProt # Q96RG2; human recombinant N-terminal GST tagged construct, residues 879-1323) (Homo sapiens (Human), UniProt Q96RG2) (Q96RG2 879-1323, change not shown): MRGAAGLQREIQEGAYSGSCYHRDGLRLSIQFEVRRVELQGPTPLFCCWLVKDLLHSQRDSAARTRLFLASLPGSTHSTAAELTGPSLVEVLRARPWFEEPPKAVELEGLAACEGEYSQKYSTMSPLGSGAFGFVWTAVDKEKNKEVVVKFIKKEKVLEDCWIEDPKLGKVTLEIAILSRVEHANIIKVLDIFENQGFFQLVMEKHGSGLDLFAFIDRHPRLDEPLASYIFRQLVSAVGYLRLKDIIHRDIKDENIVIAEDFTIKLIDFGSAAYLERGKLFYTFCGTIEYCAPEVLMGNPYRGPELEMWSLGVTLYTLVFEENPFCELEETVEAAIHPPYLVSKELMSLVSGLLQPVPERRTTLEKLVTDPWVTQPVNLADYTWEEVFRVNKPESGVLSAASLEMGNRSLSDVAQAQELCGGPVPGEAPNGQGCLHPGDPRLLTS

COc1ccc(C2CCN(c3nc4cc(C(=O)O)ccc4nc3-c3ccccc3)CC2)cc1 [Example 11, 3-(4-(4-Methoxyphenyl)piperidin-1-yl)-2-phenylquinoxaline-6-carboxylic acid]
IC50 [1]: < 10 µM

O=C(O)c1ccc2nc(-c3ccccc3)c(N3CCOCC3)nc2c1 [Example 16, 3-Morpholino-2-phenylquinoxaline-6-carboxylic acid]
IC50 [2]: < 10 µM
IC50 [1]: < 10 µM

CN1CCCN(c2nc3cc(C(=O)O)ccc3nc2-c2ccccc2)CC1 [Example 17, 3-(4-Methyl-1,4-diazepan-1-yl)-2-phenylquinoxaline-6-carboxylic acid]
IC50 [2]: < 10 µM
IC50 [1]: < 10 µM

O=C(O)c1ccc2nc(-c3ccccc3)c(N3CCN(c4ncccn4)CC3)nc2c1 [Example 19, 2-Phenyl-3-(4-(pyrimidin-2-yl)piperazin-1-yl)quinoxaline-6-carboxylic acid]
IC50 [2]: < 10 µM
IC50 [1]: < 10 µM

O=C(O)c1ccc2nc(-c3ccccc3)c(N3CCN(c4ccc(C(F)(F)F)cn4)CC3)nc2c1 [Example 20, 2-Phenyl-3-(4-(5-(trifluoromethyl)pyridin-2-yl)piperazin-1-yl)quinoxaline-6-carboxylic acid]
IC50 [2]: < 10 µM
IC50 [1]: < 10 µM

O=C(O)c1ccc2nc(-c3ccccc3)c(N3CCN(c4ccc5ccccc5n4)CC3)nc2c1 [Example 21, 2-phenyl-3-(4-(quinolin-2-yl)piperazin-1-yl)quinoxaline-6-carboxylic acid]
IC50 [2]: < 10 µM
IC50 [1]: < 10 µM

O=C(O)c1ccc2nc(N3CCCCCC3)c(-c3ccccc3)nc2c1 [Example 22, 2-(Azepan-1-yl)-3-phenylquinoxaline-6-carboxylic acid]
IC50 [1]: > 10 µM

O=C(O)c1ccc2nc(N3CCCCC3)c(-c3ccccc3)nc2c1 [Example 23, 3-Phenyl-2-(piperidin-1-yl)quinoxaline-6-carboxylic acid]
IC50 [1]: < 10 µM

O=C(O)c1ccc2nc(N3CCC(c4ccc(Cl)cc4)CC3)c(-c3ccc(F)cc3)nc2c1 [Example 24, 2-(4-(4-Chlorophenyl)piperidin-1-yl)-3-(4-fluorophenyl)quinoxaline-6-carboxylic acid]
IC50 [2]: < 10 µM
IC50 [1]: < 10 µM

O=C(O)c1ccc2nc(N3CCC(c4cccc(Cl)c4)CC3)c(-c3ccc(F)cc3)nc2c1 [Example 25, 2-(4-(3-Chlorophenyl)piperidin-1-yl)-3-(4-fluorophenyl)quinoxaline-6-carboxylic acid]
IC50 [1]: < 10 µM

COc1ccc(C2CCN(c3nc4ccc(C(=O)O)cc4nc3-c3ccc(F)cc3)CC2)cc1 [Example 26, 3-(4-Fluorophenyl)-2-(4-(4-methoxyphenyl)piperidin-1-yl)quinoxaline-6-carboxylic acid]
IC50 [2]: < 10 µM
IC50 [1]: < 10 µM

O=C(O)c1ccc2nc(N3CCN(c4ccccn4)CC3)c(-c3ccc(F)cc3)nc2c1 [Example 27, 3-(4-Fluorophenyl)-2-(4-(pyridin-2-yl)piperazin-1-yl)quinoxaline-6-carboxylic acid]
IC50 [1]: < 10 µM

O=C(O)c1ccc2nc(N3CCC(c4ccc(C(F)(F)F)cc4)CC3)c(-c3ccc(F)cc3)nc2c1 [Example 29, 3-(4-Fluorophenyl)-2-(4-(4-(trifluoromethyl)phenyl)piperidin-1-yl)quinoxaline-6-carboxylic acid]
IC50 [2]: > 10 µM
IC50 [1]: < 10 µM

O=C(O)c1ccc2nc(N3CCC(c4ccccc4)CC3)c(N3CCC(c4ccccc4)CC3)nc2c1 [Example 30, 2,3-Bis(4-phenylpiperidin-1-yl)quinoxaline-6-carboxylic acid]
IC50 [2]: < 10 µM
IC50 [1]: < 10 µM

COc1ccc(-c2nc3ccc(-c4nnn[nH]4)cc3nc2-c2ccc(OC)cc2)cc1 [Example 31, 2,3-Bis(4-methoxyphenyl)-6-(1H-tetrazol-5-yl)quinoxaline]
IC50 [2]: < 10 µM
IC50 [1]: < 10 µM

CC(C)OC(=O)C1=CN(C(=O)c2ccc(F)c(F)c2)CC(C)(C)c2c1[nH]c1ccccc21 [WAY-362450, reference compound]
effects on liver weight ([3]; 30 mg/kg): identical to those of the subject compound at the same dose
increase in plasma glucose vs vehicle ([3]; fast and re-feed mice, 30 mg/kg): 7.6%
reduction in body weight vs vehicle [3, 5]: 6.5%
decrease in plasma insulin vs vehicle [3, 6]: 22%
decrease in plasma glucose vs vehicle ([3]; fasted only mice, 30 mg/kg): 19%
decrease in plasma insulin vs vehicle ([3]; fasted only mice, 30 mg/kg): 39%
decrease in body weight vs vehicle [3, 7]: 4%
body weight change relative to the Vehicle group [4, 8]: significant increase in body weight
increase in plasma cholesterol vs vehicle ([4]; 30 mg/kg, 7 days): 17%
reduction in plasma triglycerides vs vehicle ([4]; 30 mg/kg, 7 days): 68%
decrease in plasma glucose compared to vehicle ([4]; 30 mg/kg, 7 days): did not alter plasma glucose concentrations
reduction in plasma insulin levels ([4]; 30 mg/kg, 7 days): 63.2%

CC(C)N(C)c1nc2cc(C(=O)O)ccc2nc1-c1ccc(F)cc1 [subject compound]
reduction in liver weight ([3]; 30 and 100 mg/kg, trend of dose dependent reductions): 7-9%
decrease in plasma glucose vs vehicle ([3]; fast and re-feed mice, highest dose 100 mg/kg): up to 21%
reduction in body weight vs vehicle [3, 5]: 2.7%
reduction in body weight vs vehicle ([3]; 100 mg/kg oral gavage daily for three days): 5.1%
decrease in plasma insulin vs vehicle [3, 6]: 10%
decrease in plasma insulin vs vehicle ([3]; fasted and re-fed mice, 100 mg/kg): 28%
decrease in plasma glucose vs vehicle ([3]; fasted only mice, 30 mg/kg): 30%
decrease in body weight vs vehicle [3, 7]: 1.8%
decrease in plasma glucose vs vehicle ([3]; fasted only mice, 100 mg/kg): 43%
decrease in body weight vs vehicle ([3]; fasted only mice, 100 mg/kg oral gavage daily for three days): 5.1%
decrease in plasma insulin vs vehicle ([3]; fasted only mice, 30 and 100 mg/kg): up to 26%
body weight change relative to the Vehicle group [4, 8]: modest increase in body weight
decrease in plasma cholesterol vs vehicle ([4]; 30 mg/kg, 7 days): 5.7%
reduction in plasma triglycerides vs vehicle ([4]; 30 mg/kg, 7 days): 25.1%
decrease in plasma glucose compared to vehicle ([4]; 30 mg/kg, 7 days): 21.5%
reduction in plasma insulin levels ([4]; 30 mg/kg, 7 days): 15.4%
body weight change relative to the Vehicle group ([4]; 100 mg/kg oral gavage once daily for 7 days): modest decrease in body weight
decrease in plasma cholesterol vs vehicle ([4]; 100 mg/kg, 7 days): 10%
maximal reduction in liver weight ([4]; 100 mg/kg, 7 days): about 4%
reduction in plasma triglycerides vs vehicle ([4]; 100 mg/kg, 7 days): 54.3%
decrease in plasma glucose compared to vehicle ([4]; 100 mg/kg, 7 days): 26.3%
reduction in plasma insulin levels ([4]; 100 mg/kg, 7 days): 31.4%
